Results as given in patent US8252829B2, “Aminopyrrolidinone derivatives and uses thereof” (Link Medicine Corporation, priority 2009, dated 2012).
pIC50, pKi: −log10 of the molar value.

Legend:
[1] = target: farnesyl transferase (FTase) (Homo sapiens, UniProt P49354+P49356); assay: In vitro farnesyl transferase assay (fluorescent dansyl-pentapeptide); type: biochemical; settings: dGCVLS 4 μM, FPP 5 μM, 25-50 nM FTase, 1% DMSO, room temperature
Method: Compounds were analyzed for inhibition of farnesyl transferase (FTase) activity using an established fluorescent peptide-based assay (Pompliano et al 1992 J. Am. Chem. Soc. 114:7945; U.S. Pat. No. 5,525,479, issued Jun. 11, 1996; each of which is incorporated herein by reference). In summary, a dansyl-pentapeptide (dGCVLS) was incubated at 4 μM with 5 μM farnesyl pyrophosphate (FPP) and 25-50 nM FTase in 50 mM Tris-HCl/12 mM MgCl2/12 μM ZnCl2/6 mM DTT/0.2% octyl-D-β-glucopyranoside/pH 7.0 at room temperature while the increase in fluorescence of the peptide at Ex=340 nm, Em=485 nm upon farnesyl addition was monitored continuously by a spectrofluorometer. Test compounds were added to the reaction mixture and the final results were compared to negative control (with solvent only), to allow measurement of the degreee of inhibition at each concentration of compound tested. Serial dilution series of test compounds were used to allow measurement of the IC50s and calculation of the resultant Ki. The linear portion of the reaction progress curve thus created was measured to yield an initial rate (Vo); a plot of Vo versus inhibitor concentration was fit by non-linear regression analysis (GraphPad Prism software) to calculate the […] and the Ki. All reactions in the inhibitor experiments contain a final concentration of 1% DMSO.

[2] = test system: Farnesyl Transferase (Ras farnesylation) in COS-7 cells; assay: Cellular assay for farnesyl transferase activity (cytosolic Ras in COS-7 cells, Western blot); type: cell-based; settings: 24 hr treatment, cytosolic Ras/actin ratio, read-out: Cell IC50
Text: Ras is a small GTP binding protein whose farnesylation and condequent membrane association can be reduced by inhibition of farnesyl transferase (Appels et al., Oncologist 10:565-578, 2005; Basso et al., J. Lipid Res. 47:15-31, 2006; Tamanoi, Trends Biochem. Sci. 18:349-353, 1993; each of which is incorporated herein by reference). Treatment with certain farnesyl transferase inhibitors (FTIs) reduces the farnesylation and membrane association of Ras, leading to accumulation of Ras in the cytosol of the cells. An assay was developed to monitor FTase activity, based on the amount of Ras present in the cytosolic fraction of COS-7 cells after FTI treatment. On day 0, COS-7 cells were passaged into 6-well plates at a density of 4×10^5 cells/well. Beginning on day 1, cells were treated with test compounds (e.g. FTIs) in 0.2% DMSO for 24 hr. On day 2, cells were lysed by passage through a 25 gauge needle 10 times in 100 μl Buffer 1 (50 mM Tris, 140 mM NaCl, 2 mM EDTA, protease inhibitor cocktail, pH 7.4) and lysates were centrifuged at 16,000 g for 30 min to isolate the cytosolic fraction (supernatant). The cytosolic fraction was analyzed by Western blot using anti-Ras antibody and anti-actin antibody for loaning control.
Western Blotting: Following transfer of SDS gels onto NC membrane, all membranes were blocked with 5% non-fat milk in TBST (50 mM Tris-HCl pH7.4, 150 mM NaCl, 0.1% Tween 20), incubated with primary antibody overnight with 1% BSA in TBST, washed three times with TBST, and incubated with horseradish peroxidase-conjugated secondary antibody for 1 hour (Promega). Bound antibodies were detected using enhanced chemiluminascence (NEM). Results were quantified based on densitometric analysis of Ras signal normalized to actin signal (Ras/actin ratio). Dose response curves were generated for serial dilutions of test compounds, which were then used to measure an IC50 for the test compound by curve fitting with Prism or equivalent software product.

[3] = test system: isolated islets / INS1 cells; assay: Oxygen consumption, Seahorse XF24 bioenergetic assay; type: cell-based, mice; settings: 1 nM
Method: Impaired mitochondrial function is shown by a decreased rate of oxygen consumption. For example, INS1 cells exposed to palmitate show a significant decrease in oxygen consumption rate, both under basal glucose and following stimulation with glucose. The effect of compound 28 at 1 nM on oxygen consumption was determined at 2.5 and 3.5 day incubation time points. Oxygen consumption in INS1 was measured using a Seahorse XF24 bioenergetic assay. Assays have been previously described in detail (See, Wu M, et al. Am J Physiol Cell Physiol 2007; 292:C125-36).
In one aspect, islet oxygen consumption was measured using the XF24 Islet Capture Microplate available from Seahorse Biosciences. An example of an assay to measure islet consumption is as follows:
Modified XF Assay Media (MA Media): Supplement XF DMEM assay media with 3 mM glucose and 1% FBS to run whole islets. (FBS is needed to prevent islets from becoming too adherent). Components/Formulation of Modified XF Assay Media: […]
The XF assay template is prepared via the Assay Wizard using the XF24 operation manual. The assay template is uploaded to the XF24 Analyzer before starting the assay. […]
Whole islets are prepared by standard laboratory procedure. […] The islets are counted under a dissecting microscope. […] The count of the islets is determined and the volume adjusted so that there are ˜70 islets for every 100 microliters of the islet suspension. […]

| SMILES | pKi [1] | pIC50 [2] | increase in mitochondrial respiration (Oxygen Consumption Rate vs. time, % of base line) ([3]; 2.5 days incubation (FIG. 1)) | increase in oxygen consumption ([3]; isolated islets (FIGS. 1 and 2)) |
| --- | --- | --- | --- | --- |
| N#Cc1ccc(Cn2cncc2CN[C@H]2CCN([C@@H]3CCCc4ccc(Cl)cc43)C2=O)cc1 [Compound 30] | 9.92 | 8.55 | – | – |
| N#Cc1ccc(Cn2cncc2CN[C@H]2CCN(C3CCOc4ccc(F)cc43)C2=O)cc1 (stereo partly shown) [Compound 70] | – | 7.38 | – | – |
| N#Cc1ccc(Cn2cncc2CN[C@@H]2CCN([C@@H]3CCOc4ccc(F)cc43)C2=O)cc1 [Compound 71] | – | 8.60 | – | – |

Further lines, with some results ahead:

| pKi [1] | SMILES | pIC50 [2] | increase in mitochondrial respiration (Oxygen Consumption Rate vs. time, % of base line) ([3]; 2.5 days incubation (FIG. 1)) | increase in oxygen consumption ([3]; isolated islets (FIGS. 1 and 2)) |
| --- | --- | --- | --- | --- |
| 10.23 | N#Cc1ccc(Cn2cncc2CN[C@H]2CCN([C@@H]3CCOc4ccc(F)cc43)C2=O)cc1 [Compound 28] | 8.85 | 50% | 50% |
| 10.68 | N#Cc1ccc(Cn2cncc2CN[C@H]2CCN([C@@H]3CCOc4ccc(Cl)cc43)C2=O)cc1 [Compound 29] | 8.74 | – | – |
